Source: the NIST ThermoML archive (doi:10.1016/j.jct.2018.10.026)
± gives the expanded uncertainty stated by the source.

Details: 101.33 kPa, Liquid; for mass density: Vibrating tube method; for viscosity: Concentric cylinders viscometry

| SMILES | mass density (293.15 K) [kg/m3] | mass density (298.15 K) [kg/m3] | viscosity (303.15 K) [mPa·s] | mass density (303.15 K) [kg/m3] | viscosity (308.15 K) [mPa·s] | mass density (308.15 K) [kg/m3] | viscosity (313.15 K) [mPa·s] | mass density (313.15 K) [kg/m3] | viscosity (318.15 K) [mPa·s] | mass density (318.15 K) [kg/m3] | viscosity (323.15 K) [mPa·s] | mass density (323.15 K) [kg/m3] | viscosity (293.15 K) [mPa·s] | viscosity (298.15 K) [mPa·s] |
| --- | --- | --- | --- | --- | --- | --- | --- | --- | --- | --- | --- | --- | --- | --- |
| C[N+](C)(C)CCO.[O-]c1cccc2cccnc12 [choline 8-quinolinolate] | 1162.71 ± 6.5 | 1159.75 ± 6.5 | 4870960 ± 1.2e+06 | 1156.73 ± 6.4 | 2363490 ± 570000 | 1153.91 ± 6.4 | 1331720 ± 310000 | 1150.97 ± 6.4 | 755840 ± 180000 | 1147.91 ± 6.4 | 338330 ± 77000 | 1144.78 ± 6.4 | – | – |
| C[C@H](O)C(=O)[O-].C[N+](C)(C)CCO | 1137.33 ± 11 | 1133.94 ± 11 | 2903 ± 600 | 1130.52 ± 11 | 2207 ± 460 | 1127.05 ± 11 | 1728 ± 360 | 1123.55 ± 11 | 1368 ± 280 | 1120.11 ± 11 | 1110 ± 230 | 1116.7 ± 11 | 5513 ± 1200 | 3929 ± 820 |
